Measured values as given in article PMC10385371, “Discovery of Novel Coumarin-Schiff Base Hybrids as Potential Acetylcholinesterase Inhibitors: Design, Synthesis, Enzyme Inhibition, and Computational Studies” (Pharmaceuticals, 2023).
Several values for one entry are separate records, joined by “and”; a condition that tells them apart may be missing. Identical values can stand only once.

How the values were obtained:
[1] = molecular target: T1, Acetylcholinesterase (Type VI-S, from Electrophorus electricus) (Electrophorus electricus, UniProt O42275); assay: biochemical; format: biochemical; conditions: for IC50: read-out: IC50 against AChE; for potency relative to galantamine (positive control): ratio of AChE IC50 values
T1 construct: purchased Sigma Aldrich Type VI-S (catalogue number not given)
Method: The procedure described by Ellman, slightly modified, was performed to assess the AChE inhibitory activity of synthesized compounds, according to reported procedures in the literature. Detailed protocol is provided in supplementary materials. […]
In vitro inhibition study on AChE
The assay for AChE inhibitory activity was done based on a modified protocol. Acetylcholinesterase (Type VI-S, from Electrophorus electricus), 5,5′-dithiobis-2-nitrobenzoic acid (Ellman's reagent, DTNB) and acetylthiocholine chloride (ATCI) were purchased from Sigma Aldrich. Enzyme solutions were prepared to give 0.28 units/mL aliquots. Stock solutions were prepared by dissolving 1 mg of tested compounds in 1 mL of DMSO and diluted to a final concentration of 1000, 800, 600, 400, 200, 100, and 50 µg/mL. The assay buffer solution A (pH = 8.0) was prepared by taking 93.2 mL of solution (6 g of sodium dihydrogen phosphate was dissolved in 500 mL of deionized water) and mixed with 6.8 mL of solution (7 g of sodium hydrogen phosphate was dissolved in 500 mL of deionized water) and adjusted. 57.7 mL of sodium dihydrogen phosphate and 42.3 mL of sodium hydrogen phosphate were mixed and adjusted to prepare the buffer B (pH = 7.0). […]
fresh solutions of 0.01 M DTNB (0.396 g of DTNB and 15 mg NaHCO3 were dissolved in 100 mL of the buffer B) in a dark place, and 0.075 M ATCI (0.2048 g of ATCI was dissolved in 10 mL of deionized water), were prepared. In 96-well plates, 20 μL of the test compounds, 10 μL of DTNB, 15 μL of the enzyme (AChE) and 140 μL of the buffer solution A, were added in dark conditions and incubated for 15 min, followed by the addition of ATCI (10 μL) and incubated again for the same period. The activity was measured by reading the absorbance of the solution at 412 nm. Blanks containing all the components except the enzyme were carried out.
IC50 values were calculated as the concentration of a compound that produces 50% enzyme activity inhibition using the GraphPad Prism 8 programme package. Results are expressed as the mean ± SD of at least three different experiments performed in triplicate.
Percentage inhibition was calculated by this formula:
% ሺInhibitionሻ = B−AB X 100
• A= absorbance of the enzyme with the test sample;
• B = absorbance of the enzyme without test sample.
• Each experiment was repeated thrice.

[2] = system: AChE; conditions: read-out: IC50 against AChE; cited from earlier work
[3] = molecular target: human monoamine oxidase hMAO-B; conditions: cited from earlier work
[4] = molecular target: human monoamine oxidase hMAO-A; conditions: cited from earlier work

T1 sequence (O42275 24-633): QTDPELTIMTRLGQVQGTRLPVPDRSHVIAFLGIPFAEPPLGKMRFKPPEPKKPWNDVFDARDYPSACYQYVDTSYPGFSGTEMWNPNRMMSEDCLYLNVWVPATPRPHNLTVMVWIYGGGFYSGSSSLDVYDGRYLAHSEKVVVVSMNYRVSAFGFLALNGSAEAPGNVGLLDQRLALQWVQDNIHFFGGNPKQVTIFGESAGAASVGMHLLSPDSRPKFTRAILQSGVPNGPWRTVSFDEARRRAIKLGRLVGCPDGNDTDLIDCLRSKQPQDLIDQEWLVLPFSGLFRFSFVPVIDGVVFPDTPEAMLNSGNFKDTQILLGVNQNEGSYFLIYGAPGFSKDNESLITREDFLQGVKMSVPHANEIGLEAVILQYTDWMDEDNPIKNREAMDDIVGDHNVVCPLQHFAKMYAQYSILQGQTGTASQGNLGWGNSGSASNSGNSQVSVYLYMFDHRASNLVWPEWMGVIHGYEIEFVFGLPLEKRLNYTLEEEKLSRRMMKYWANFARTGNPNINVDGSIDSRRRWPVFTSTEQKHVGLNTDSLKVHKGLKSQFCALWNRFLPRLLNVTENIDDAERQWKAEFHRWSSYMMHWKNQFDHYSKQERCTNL

For COc1ccc2c(COc3ccc(/C=N/c4ccccc4)cc3)cc(=O)oc2c1 [13a, (E)-7-Methoxy-4-((4-((phenylimino)methyl)phenoxy)methyl)-2H-chromen-2-one], the IC50 [1] was 440 ± 16 µM.

With COc1ccc2c(COc3ccc(/C=N/c4ccc(Cl)cc4)cc3)cc(=O)oc2c1 [13c, (E)-4-((4-(((4-Chlorophenyl)imino)methyl)phenoxy)methyl)-7-methoxy-2H-chromen-2-one] the “potency relative to galantamine (positive control)” value [1] was 5 fold and ~ 5 fold and the IC50 [1] was 232 ± 11 µM.

Molecule COc1ccc2c(COc3cccc(/C=N/c4ccc(Cl)cc4)c3)cc(=O)oc2c1 [13j, (E)-4-((3-(((4-Chlorophenyl)imino)methyl)phenoxy)methyl)-7-methoxy-2H-chromen-2-one] has an IC50 [1] of 651 ± 3 µM.

With COc1ccc(/N=C/c2cccc(OCc3cc(=O)oc4cc(OC)ccc34)c2)cc1 [13g, (E)-7-Methoxy-4-((3-(((4-methoxyphenyl)imino)methyl)phenoxy)methyl)-2H-chromen-2-one] the IC50 [1] was 1090 ± 58 µM.

With COc1ccc(/N=C/c2ccc(OCc3cc(=O)oc4cc(OC)ccc34)c(OC)c2)cc1 [13f, (E)-7-Methoxy-4-((2-methoxy-4-(((4-methoxyphenyl)imino)methyl)phenoxy)methyl)-2H-chromen-2-one] the IC50 [1] was 365 ± 25 µM.

With COc1ccc2c(COc3ccc(/C=N/c4ccc(Cl)cc4)cc3OC)cc(=O)oc2c1 [13d, (E)-4-((4-(((4-Chlorophenyl)imino)methyl)-2-methoxyphenoxy)methyl)-7-methoxy-2H-chromen-2-one] the “potency relative to galantamine (positive control)” value [1] was 5 fold and ~ 5 fold.

In the case of Cc1c(O)ccc2c(CC(=O)NCCN3CCN(Cc4ccccc4)CC3)cc(=O)oc12 [compound 3], the IC50 [2] is given as 0.04 µM.

Molecule COc1ccc2c(COc3ccc(/C=N/c4ccccc4)cc3OC)cc(=O)oc2c1 [13e, (E)-7-Methoxy-4-((2-methoxy-4-((phenylimino)methyl)phenoxy)methyl)-2H-chromen-2-one] has an IC50 [1] of 297 ± 6 µM.

For O=c1oc2ccccc2c(O)c1/N=C/c1ccc(O)c(O)c1O [compound 4], the IC50 [3] is listed as 0.711 µM and the IC50 [4] is listed as 0.673 µM.

Molecule COc1ccc2c(COc3cc(/C=N/c4ccc(Cl)cc4)ccc3OC)cc(=O)oc2c1 [13i, (E)-4-((5-(((4-Chlorophenyl)imino)methyl)-2-methoxyphenoxy)methyl)-7-methoxy-2H-chromen-2-one] has an IC50 [1] of 712 ± 44 µM.

COc1ccc(/N=C/c2ccc(OCc3cc(=O)oc4cc(OC)ccc34)cc2)cc1 [13b, (E)-7-Methoxy-4-((4-(((4-methoxyphenyl)imino)methyl)phenoxy)methyl)-2H-chromen-2-one] gave an IC50 [1] of 466 ± 7 µM.

In the case of O=C(N/N=C\c1c2ccccc2cc2ccccc12)c1ccccc1O [compound 5], the IC50 [2] is given as 4.12 µM.
